Patent US6600015B2, “Selective linear peptides with melanocortin-4 receptor (MC4-R) agonist activity” (Hoffmann-La Roche Inc., priority 2000, dated 2003)
Non-standard residues stand in square brackets, D forms with d. Residues, ends and D or L forms follow the SMILES beside them. *: point of attachment. Butyryl = CCCC(=O)*

What was measured:
[1] = target: T1, MC-4 receptor (Homo sapiens, UniProt P32245); test: Agonist assay: cAMP response in 293 cells transfected with MC-4 receptor (Biotrak-cAMP SPA); format: cell-based; conditions: cAMP increase, read-out: EC50 for MC4-R agonist activity
T1 construct: expressed in transfected cells; host or cells: 293 cells (293MC4, obtained from Dr. Wei Gu, Millenium)
Description: Description: 293 cells transfected with either the MC-4 receptor or MC-1 receptor were grown in 96 well plates. The cells were stimulated with either 100 nM NDP-αMSH or screening compounds. Cyclic AMP was extracted from the cells and concentrations were determined using a Biotrak-cAMP SPA assay. Agonists were identified as those compounds causing an increase in cAMP. […] Wei Gu, Millenium) were cultured in 75cm^2flasks in D-MEM supplemented with 10% FCS and 500 μg/ml G418. Cells were trypsinized and split 1:3 into 96 well flat-bottom tissue culture treated plates. Cells were stimulated at confluence (day 2-4). cAMP Response: Compounds serially diluted in 100% DMSO were further diluted 1:200 (2.5 μl compound dilution+500 μl media) in D-MEM containing 10% FBS and 0.1 mM IBMX. For unstimulated cells, 2.5 μl of DMSO was added to 500 μl of media. For NDP-αMSH stimulated cells, 2.5 μl of 20 μM NDP-αMSH in 100% DMSO was added to 500 μl of media (final conc. 100 nM). Final concentration of DMSO in all wells was 0.5%. Note: Each sample was run in duplicate on separate plates Culture medium was removed from confluent 96 well culture plates and replaced with 200 μl of above dilutions into the appropriate wells . The plates were incubated for 1 hr at RT. […] [125I]cAMP binding to the SPA beads was determined by counting each plate for 2 minutes on a Packard TopCount™. […]

[2] = target: T2, MC-1 receptor (Homo sapiens, UniProt Q01726); test: Agonist assay: cAMP response in 293 cells transfected with MC-1 receptor (Biotrak-cAMP SPA); format: cell-based; conditions: MC1-R versus MC4-R agonist activity, transfected 293 cells
T2 construct: expressed in transfected cells; host or cells: 293 cells
T2 sequence (Q01726 whole entry): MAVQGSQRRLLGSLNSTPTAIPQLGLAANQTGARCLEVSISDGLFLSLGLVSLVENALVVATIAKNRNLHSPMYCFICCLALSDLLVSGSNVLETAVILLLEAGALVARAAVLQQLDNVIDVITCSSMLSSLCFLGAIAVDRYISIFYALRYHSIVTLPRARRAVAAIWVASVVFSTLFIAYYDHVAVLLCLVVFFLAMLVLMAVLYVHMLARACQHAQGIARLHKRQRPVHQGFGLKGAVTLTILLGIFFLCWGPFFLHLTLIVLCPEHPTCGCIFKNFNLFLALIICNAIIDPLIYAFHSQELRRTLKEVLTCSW
Description: Culture medium was removed from confluent 96 well culture plates and replaced with 200 μl of above dilutions into the appropriate wells . The plates were incubated for 1 hr at RT. The media was removed, and the plates were washed 1× with 200^μl well of PBS. CAMP was extracted by the addition of 60 μl 70% ethanol (stored in the refrigerator). […]
cAMP Assay: The extracted samples and all reagents included in the kit were brought to room temperature. […] [125I]cAMP binding to the SPA beads was determined by counting each plate for 2 minutes on a Packard TopCount™. […]

T1 sequence (P32245 whole entry): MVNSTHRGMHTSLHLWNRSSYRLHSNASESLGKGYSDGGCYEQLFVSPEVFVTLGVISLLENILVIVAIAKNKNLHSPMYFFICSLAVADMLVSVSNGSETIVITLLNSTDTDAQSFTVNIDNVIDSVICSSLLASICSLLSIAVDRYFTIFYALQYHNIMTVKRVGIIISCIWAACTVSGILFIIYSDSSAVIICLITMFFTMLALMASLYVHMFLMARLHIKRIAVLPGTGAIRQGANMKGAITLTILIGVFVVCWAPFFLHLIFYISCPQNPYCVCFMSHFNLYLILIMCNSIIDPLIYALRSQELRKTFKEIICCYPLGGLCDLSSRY

SMILES: CCCCC(=O)NC1(C(=O)N[C@H](Cc2ccccc2)C(=O)N[C@@H](CCCNC(=N)N)C(=O)N[C@@H](Cc2c[nH]c3ccccc23)C(=O)NCC(N)=O)CC=C(c2ccccc2)CC1 (single isomer, unassigned) [Penta-Ape-(D)Phe-Arg-Trp-Gly-NH2]
- EC50 [1]: < 500 nM

SMILES: CCCC(=O)N[C@@H](Cc1c[nH]cn1)C(=O)N[C@H](Cc1ccccc1)C(=O)N[C@@H](CCCNC(=N)N)C(=O)N[C@@H](Cc1c[nH]c2ccccc12)C(=O)NCC(N)=O [Example 30, Bu-His-(D)Phe-Arg-Trp-Gly-NH2] (Butyryl-H[dF]RWG-NH2)
- MC1-R agonist activity compared with MC4-R agonist activity [2]: greater MC1-R agonist activity than MC4-R agonist activity
